Tests used:
[1] = molecular target: T1, M1 muscarinic receptor (Homo sapiens, UniProt P11229); assay: Functional mobilization of intracellular calcium (FLIPR) in M1-CHO cells; assay type: cell-based; settings: M1-CHO cells, calcium mobilization (FLIPR); for Emax: read-out: M1 Efficacy
T1 construct: expressed in transfected cells; host or cells: CHO (M1-CHO)
T1 sequence (P11229 1-460): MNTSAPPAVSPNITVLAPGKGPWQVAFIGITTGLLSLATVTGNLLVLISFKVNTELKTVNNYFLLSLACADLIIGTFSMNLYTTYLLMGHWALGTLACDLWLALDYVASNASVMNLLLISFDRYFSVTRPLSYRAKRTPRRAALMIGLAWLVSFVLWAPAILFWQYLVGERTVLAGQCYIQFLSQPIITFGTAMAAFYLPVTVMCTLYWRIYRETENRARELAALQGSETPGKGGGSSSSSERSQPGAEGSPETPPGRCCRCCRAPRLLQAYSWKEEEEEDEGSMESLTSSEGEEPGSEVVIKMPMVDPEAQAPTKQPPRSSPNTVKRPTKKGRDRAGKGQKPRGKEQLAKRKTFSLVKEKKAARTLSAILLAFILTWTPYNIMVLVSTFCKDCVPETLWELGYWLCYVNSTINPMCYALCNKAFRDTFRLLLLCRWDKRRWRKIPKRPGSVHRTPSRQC
Procedure, shortened: (§1)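 Steps: seed M1- or M4-CHO cells 18-24 hrs ahead; load calcium dye with 1 mM probenecid; add test compound (0.5% DMSO final), either alone for agonism or 15 min before EC80 carbachol for inhibition; record FLIPR fluorescence for 60 sec.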

[2] = molecular target: T2, M4 muscarinic receptor (Homo sapiens, UniProt P08173); assay: Functional mobilization of intracellular calcium (FLIPR) in M4-CHO cells; assay type: cell-based; settings: M4-CHO cells, calcium mobilization (FLIPR); for Emax: read-out: M4 Efficacy
T2 construct: expressed in transfected cells; host or cells: CHO (M4-CHO)
T2 sequence (P08173 1-479): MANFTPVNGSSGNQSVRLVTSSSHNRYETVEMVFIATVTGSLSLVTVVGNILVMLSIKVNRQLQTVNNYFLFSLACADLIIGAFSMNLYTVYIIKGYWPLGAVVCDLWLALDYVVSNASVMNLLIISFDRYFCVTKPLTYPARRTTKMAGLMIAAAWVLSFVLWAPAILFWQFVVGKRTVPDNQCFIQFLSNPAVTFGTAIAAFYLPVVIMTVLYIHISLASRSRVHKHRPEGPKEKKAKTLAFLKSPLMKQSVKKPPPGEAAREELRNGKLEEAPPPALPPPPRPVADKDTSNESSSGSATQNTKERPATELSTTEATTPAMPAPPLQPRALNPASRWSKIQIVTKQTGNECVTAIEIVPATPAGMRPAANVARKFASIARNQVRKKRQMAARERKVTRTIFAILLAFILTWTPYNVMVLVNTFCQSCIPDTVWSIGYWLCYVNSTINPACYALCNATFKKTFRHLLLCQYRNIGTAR
Procedure, shortened: as §1

Row | Structure (SMILES) | EC50 [1] [µM] | Emax [1] [%] | EC50 [2] [µM] | Emax [2] [%]
1 | CCNC(=O)N1CC2(CCN(C3CC4CCC3C4)CC2)c2cc(C)ccc21 (stereo not drawn) [compound 400] | > 1 | < 65 | > 1 | < 65
2 | CCOC(=O)N1CCC(N2CCC3(CC2)CN(C(=O)c2ccc4c(c2)OCO4)c2ccc(F)cc23)CC1 [compound 401] | < 0.1 | 65 to 85 | > 1 | < 65
3 | CC(C)OC(=O)N1C2CCC1CC(N1CCC3(CC1)CN(C(=O)O[C@@H]1CCOC1)c1ccc(F)cc13)C2 (stereo partly drawn) [compound 402] | 0.1 to 1 | 65 to 85 | > 1 | < 65
4 | CC(=O)N1CC2(CCN(CC3CCN(C(=O)O[C@@H]4CCOC4)CC3)CC2)c2cc(C)ccc21 [compound 403] | < 0.1 | 65 to 85 | > 1 | < 65
5 | CC(=O)N1CC2(CCN(CC3CCN(C(=O)OC(C)C)CC3)CC2)c2cc(C)ccc21 [compound 404] | 0.1 to 1 | < 65 | > 1 | < 65
6 | CCCOC(=O)N1C2CCC1CC(N1CCC3(CC1)CN(C(=O)OCCOC)c1ccc(F)cc13)C2 (stereo not drawn) [compound 405] | 0.1 to 1 | < 65 | > 1 | < 65
7 | CCOC(=O)N1CCC(N2CCC3(CC2)CN(C(C)=O)c2ccc(-c4ccc(C(N)=O)cc4)cc23)CC1 [compound 406] | 0.1 to 1 | < 65 | > 1 | < 65
8 | C/C=C\c1ccc2c(c1)C1(CCN(C3CCN(C(=O)OCC)CC3)CC1)CN2C(C)=O [compound 407] | 0.1 to 1 | < 65 | > 1 | < 65
9 | CC(=O)NC1CC2(CCN(C[C@@H]3C[C@H]4C=C[C@H]3C4)CC2)c2ccccc21 (stereo partly drawn) [compound 408] | < 0.1 | 65 to 85 | < 0.1 | 65 to 85
10 | CCOC(=O)N1C2CCC1CC(N1CCC3(CC1)CN(C(=O)OC1CCC1)c1ccc(F)cc13)C2 (stereo not drawn) [compound 409] | < 0.1 | > 85 | < 0.1 | > 85
11 | CCOC(=O)N1CCC(N2CCC3(CC2)CN(C(=O)c2cccc(F)c2)c2ccc(F)cc23)CC1 [compound 410] | 0.1 to 1 | < 65 | 0.1 to 1 | < 65
12 | Cc1cc(C(=O)N2CC3(CCN(C4CC5CCC(C4)N5C(=O)O[C@H]4CCOC4)CC3)c3cc(F)ccc32)nn1C (stereo partly drawn) [compound 411] | < 0.1 | < 65 | 0.1 to 1 | < 65
13 | COCCOC(=O)N1CCC(CN2CCC3(CC2)C[C@H](NC(C)=O)c2ccccc23)CC1 [compound 412] | 0.1 to 1 | < 65 | > 1 | < 65
14 | CCOC(=O)N1CCC(N2CCC3(CC2)CN(C(C)=O)c2ccc(F)cc23)CC1 [compound 413] | < 0.1 | < 65 | 0.1 to 1 | < 65
15 | CCOC(=O)N1CCC(CN2CCC3(CCc4ccccc43)CC2)CC1 [compound 414] | > 1 | < 65 | > 1 | < 65
16 | Clc1ccc2c(c1)C1(CCN(CC3CCOCC3)CC1)CO2 [compound 415] | > 1 | < 65 | > 1 | < 65
17 | Fc1ccc2c(c1)C1(CCN(C3CC4CCC3C4)CC1)CN2 (stereo not drawn) [compound 416] | > 1 | < 65 | > 1 | < 65
18 | CCOC(=O)N1C2CCC1CC(N1CCC3(CC1)CN(C(C)=O)c1ccc(Cl)cc13)C2 (stereo not drawn) [compound 417] | 0.1 to 1 | < 65 | > 1 | < 65

Reference: patent US7786141B2 (Vertex Pharmaceuticals Incorporated, priority 2004, dated 2010)
